{
  "source": "paper PMC6934184",
  "about": "“Selective DNA-PKcs inhibition extends the therapeutic index of localized radiotherapy and chemotherapy” (The Journal of Clinical Investigation, 2019)",
  "molecular_target": "T1, EPHB1 (Homo sapiens, UniProt P54762)",
  "T1 construct": "purchased Thermo Fisher Scientific (Life Technologies) SelectScreen",
  "T1 sequence (P54762 18-984)": "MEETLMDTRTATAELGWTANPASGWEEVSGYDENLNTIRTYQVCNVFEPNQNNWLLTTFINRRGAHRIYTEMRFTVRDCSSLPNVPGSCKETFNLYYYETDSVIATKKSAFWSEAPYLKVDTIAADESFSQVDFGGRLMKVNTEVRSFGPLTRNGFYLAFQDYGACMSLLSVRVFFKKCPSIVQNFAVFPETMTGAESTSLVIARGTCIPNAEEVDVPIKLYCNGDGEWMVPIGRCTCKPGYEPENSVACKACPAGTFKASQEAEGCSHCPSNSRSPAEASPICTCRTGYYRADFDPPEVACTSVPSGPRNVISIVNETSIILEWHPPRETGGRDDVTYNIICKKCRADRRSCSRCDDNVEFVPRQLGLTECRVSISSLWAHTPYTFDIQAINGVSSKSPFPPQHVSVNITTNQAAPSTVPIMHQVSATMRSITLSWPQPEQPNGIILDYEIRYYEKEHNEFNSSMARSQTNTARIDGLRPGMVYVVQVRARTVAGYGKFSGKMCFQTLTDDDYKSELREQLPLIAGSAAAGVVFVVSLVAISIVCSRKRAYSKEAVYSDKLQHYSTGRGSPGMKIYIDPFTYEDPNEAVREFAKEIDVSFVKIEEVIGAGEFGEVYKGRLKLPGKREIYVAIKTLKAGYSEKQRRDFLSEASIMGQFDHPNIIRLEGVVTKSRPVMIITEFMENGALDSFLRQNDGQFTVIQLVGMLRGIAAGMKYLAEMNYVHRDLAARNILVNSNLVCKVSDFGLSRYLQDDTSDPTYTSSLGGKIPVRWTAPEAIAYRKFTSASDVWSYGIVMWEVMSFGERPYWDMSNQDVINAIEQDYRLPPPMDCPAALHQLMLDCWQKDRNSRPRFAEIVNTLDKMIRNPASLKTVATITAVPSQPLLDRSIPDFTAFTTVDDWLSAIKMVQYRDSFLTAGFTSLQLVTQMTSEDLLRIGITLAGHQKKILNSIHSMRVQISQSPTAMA",
  "test": "SelectScreen Z'LYTE",
  "type": "biochemical",
  "summary_of_the_method": "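NU5455 was profiled across the SelectScreen Broad panel of kinase activity and binding assays. Z'LYTE reactions such as CSF1R ran at apparent Km ATP, while the Adapta CAMK1 assay used ATP listed as 10. Values are given as percent.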",
  "data": [
    {"smiles": "CN(C(=O)CN1CCOCC1)c1ccc2sc3c(-c4cccc5c(=O)cc(N6CC7CCC(C6)O7)oc45)cccc3c2c1", "note": "[NU5455]", "values": [
      {"measurement": "inhibition at 1 µM", "result": 5.1, "unit": "%"}
    ]}
  ]
}
